# Structures can show the parent of a compound that is named as a salt.
# Molecular target: T1, IRAK4 (Homo sapiens, UniProt Q9NWZ3)
# T1 construct: His (N); TEV cleavage site (N)
# T1 sequence (Q9NWZ3 1-460): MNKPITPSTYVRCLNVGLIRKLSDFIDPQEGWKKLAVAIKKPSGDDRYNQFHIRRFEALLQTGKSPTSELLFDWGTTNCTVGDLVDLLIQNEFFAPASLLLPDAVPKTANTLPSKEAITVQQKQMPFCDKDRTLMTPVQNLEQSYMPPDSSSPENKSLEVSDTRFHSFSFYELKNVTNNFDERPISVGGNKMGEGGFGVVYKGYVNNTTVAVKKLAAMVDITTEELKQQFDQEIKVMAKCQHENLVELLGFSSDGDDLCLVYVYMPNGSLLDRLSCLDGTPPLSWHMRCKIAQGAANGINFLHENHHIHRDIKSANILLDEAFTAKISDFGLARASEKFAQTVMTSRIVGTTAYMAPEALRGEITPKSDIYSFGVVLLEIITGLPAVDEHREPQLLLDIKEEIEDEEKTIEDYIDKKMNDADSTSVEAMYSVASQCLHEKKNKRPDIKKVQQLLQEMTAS
# Test: IRAK4 Enzymatic Assay
# Assay type: biochemical
# Conditions: His-TEV-IRAK4 20 ng/well, ATP 2 μM, STK1-biotin peptide 300 nM, 3 hours at 30° C., FlashPlate radioactivity
# Experimental: IRAK4 is a human purified recombinant enzyme (His-TEV-IRAK1 (194-712)
# IRAK4 hydrolyses ATP, autophosphorylates and phosphorylates a Serine/Threonine generic peptidic substrate (STK: 61ST1BLC from CisBio International based in Bagnols/Cèze FR).
# Measurement of IRAK-4 inhibition is performed in streptavidin coated 384 well FlashPlate (PerkinElmer #SMP410A). His-TEV-IRAK4 (20 ng/well), ATP (2 μM, [^33P]ATP 0.25 μCi/well), STK1-biotin peptide (300 nM) and compounds in DMSO (range of concentrations from 20 μM to 1nM) or controls (2% DMSO) are incubated for 3 hours at 30° C. in assay buffer: Hepes pH7.0 50 mM, Fatty acid-free BSA 0.1%, Dithiothreitol DTT 2 mM, MgCl2 10 mM, EGTA 0.5 mM, Tween-20 0.01%, MnCl2 5 mM.
# Kinase reaction is stopped by addition of EDTA. Supernatant is discarded, plates are washed three times with 150 mM NaCl and radioactivity is then measured in a Microbeta Trilux reader.
row,Structure (SMILES),IC50 [nM]
1,"COCC(=O)N1CCC(n2cc(-c3cnc(-c4cccc(-c5cnn(C)c5)c4)nc3)cn2)CC1 [Example 105, 2-Methoxy-1-[4-(4-{2-[3-(1-methyl-1H-pyrazol-4-yl)-phenyl]-pyrimidin-5-yl}-pyrazol-1-yl)-piperidin-1-yl]-ethanone]",100 to 1000
2,"Cn1cc(-c2cccc(-c3ncc(-c4cnn(CC5CNC5)c4)cn3)c2)cn1 [Example 66, 5-(1-Azetidin-3-ylmethyl-1H-pyrazol-4-yl)-2-[3-(1-methyl-1H-pyrazol-4-yl)-phenyl]-pyrimidine hydrochloride]",100 to 1000
3,"Cn1cc(-c2cccc(-c3ncc(-c4cnn(C5CCN(C(=O)C6CCOC6)CC5)c4)cn3)c2)cn1 (stereo not shown) [Example 104, [4-(4-{2-[3-(1-Methyl-1H-pyrazol-4-yl)-phenyl]-pyrimidin-5-yl}-pyrazol-1-yl)-piperidin-1-yl]-(tetrahydro-furan-3-yl)-methanone]",100 to 1000
4,"Cn1cc(-c2cccc(-c3ncc(-c4cnn(C5C6COCC5CC(CO)C6)c4)cn3)c2)cn1 (stereo not shown) [Example 276, [9-(4-{2-[3-(1-Methyl-1H-pyrazol-4-yl)-phenyl]-pyrimidin-5-yl}-pyrazol-1-yl)-3-oxa-bicyclo[3.3.1]non-7-yl]-methanol]",100 to 1000
5,"C[C@H](CO)NC(=O)[C@H]1CC[C@H](n2cc(-c3cnc(-c4cccc(-c5cnn(C)c5)c4)nc3)cn2)CC1 [Example 199, Trans-4-(4-{2-[3-(1-Methyl-1H-pyrazol-4-yl)-phenyl]-pyrimidin-5-yl}-pyrazol-1-yl)-cyclohexanecarboxylic acid ((R)-2-hydroxy-1-methyl-ethyl)-amide]",< 100
6,"CC(=O)N1CC[C@H](n2cc(-c3cnc(-c4cccc(-c5cnn(C)c5)c4)nc3)cn2)C1 [Example 126, 1-[(S)-3-(4-{2-[3-(1-Methyl-1H-pyrazol-4-yl)-phenyl]-pyrimidin-5-yl}-pyrazol-1-yl)-pyrrolidin-1-yl]-ethanone]",100 to 1000
7,"Cc1cc(-c2cccc(-c3ncc(-c4cnn([C@H]5CC[C@H](O)CC5)c4)cn3)c2)cnn1 [Example 247, trans-4-(4-{2-[3-(6-Methyl-pyridazin-4-yl)-phenyl]-pyrimidin-5-yl}-pyrazol-1-yl)-cyclohexanol]",100 to 1000
8,"Cn1cc(-c2cccc(-c3ncc(-c4cnn(C5CCCN(S(C)(=O)=O)C5)c4)cn3)c2)cn1 (stereo in doubt) [Example 272, 5-[(R)-1-(1-Methanesulfonyl-piperidin-3-yl)-1H-pyrazol-4-yl]-2-[3-(1-methyl-1H-pyrazol-4-yl)-phenyl]-pyrimidine]",< 100
9,"Cn1cc(-c2cccc(-c3ncc(-c4cnn(CCN5CCCCC5)c4)cn3)c2)cn1 [Example 57, 2-[3-(1-Methyl-1H-pyrazol-4-yl)-phenyl]-5-[1-(2-piperidin-1-yl-ethyl)-1H-pyrazol-4-yl]-pyrimidine]",100 to 1000
10,"Cn1cc(-c2cccc(-c3ncc(-c4cn(C)nc4CO)cn3)c2)cn1 [Example 155, (1-Methyl-4-{2-[3-(1-methyl-1H-pyrazol-4-yl)-phenyl]-pyrimidin-5-yl}-1H-pyrazol-3-yl)-methanol]",1000 to 5000
11,"Cn1cc(-c2cccc(-c3ncc(-c4cnn(C5CCN(C(=O)C6CC(O)C6)CC5)c4)cn3)c2)cn1 (stereo not shown) [Example 120, (3-Hydroxy-cyclobutyl)-[4-(4-{2-[3-(1-methyl-1H-pyrazol-4-yl)-phenyl]-pyrimidin-5-yl}-pyrazol-1-yl)-piperidin-1-yl]-methanone]",100 to 1000
12,"Cn1cc(-c2cccc(-c3ncc(-c4cnn(C5CCN(C6CCCOC6)CC5)c4)cn3)c2)cn1 (stereo not shown) [Example 270, 2-[3-(1-Methyl-1H-pyrazol-4-yl)-phenyl]-5-{1-[1-(tetrahydro-pyran-3-yl)-piperidin-4-yl]-1H-pyrazol-4-yl}-pyrimidine]",< 100
13,"C[C@@H](CO)NC(=O)[C@H]1CC[C@H](n2cc(-c3cnc(-c4cccc(-c5cnn(C)c5)c4)nc3)cn2)CC1 [Example 198, Trans-4-(4-{2-[3-(1-Methyl-1H-pyrazol-4-yl)-phenyl]-pyrimidin-5-yl}-pyrazol-1-yl)-cyclohexanecarboxylic acid ((S)-2-hydroxy-1-methyl-ethyl)-amide]",< 100
14,"Cn1cc(-c2cccc(-c3ncc(-c4cnn(C5CCOCC5)c4)cn3)c2)cn1 [Example 97, 2-[3-(1-Methyl-1H-pyrazol-4-yl)-phenyl]-5-[1-(tetrahydro-pyran-4-yl)-1H-pyrazol-4-yl]-pyrimidine]",100 to 1000
15,"Cn1cc(-c2cccc(-c3ncc(-c4cnn(CC(=O)N5CCC[C@H]5CO)c4)cn3)c2)cn1 [Example 81, 1-((S)-2-Hydroxymethyl-pyrrolidin-1-yl)-2-(4-{2-[3-(1-methyl-1H-pyrazol-4-yl)-phenyl]-pyrimidin-5-yl}-pyrazol-1-yl)-ethanone]",100 to 1000
16,"CO[C@H]1CC[C@H](n2cc(-c3cnc(-c4cccc(-c5cnn(C)c5)c4)nc3)cn2)CC1 [Example 253, trans-5-[1-(4-Methoxy-cyclohexyl)-1H-pyrazol-4-yl]-2-[3-(1-methyl-1H-pyrazol-4-yl)-phenyl]-pyrimidine]",< 100
17,"Cn1cc(-c2cccc(-c3ncc(-c4cnn(CCC5CCOCC5)c4)cn3)c2)cn1 [Example 69, 2-[3-(1-Methyl-1H-pyrazol-4-yl)-phenyl]-5-{1-[2-(tetrahydro-pyran-4-yl)-ethyl]-1H-pyrazol-4-yl}-pyrimidine]",100 to 1000
18,"Cn1cc(-c2cccc(-c3ncc(-c4cnn([C@H]5CC[C@H](N6CCOCC6)CC5)c4)cn3)c2)cn1 [Example 208, Trans-4-[4-(4-{2-[3-(1-Methyl-1H-pyrazol-4-yl)-phenyl]-pyrimidin-5-yl}-pyrazol-1-yl)-cyclohexyl]-morpholine]",< 100
19,"Cn1cc(-c2cccc(-c3ncc(-c4cnn([C@@H]5CCNC5)c4)cn3)c2)cn1 [Example 116, 2-[3-(1-Methyl-1H-pyrazol-4-yl)-phenyl]-5-((R)-1-pyrrolidin-3-yl-1H-pyrazol-4-yl)-pyrimidine]",100 to 1000
20,"CC(=O)N1CC[C@H](n2cc(-c3cnc(-c4cccc(-c5cnn(C)c5)c4)nc3)cn2)[C@@H](O)C1 (single isomer, unassigned) [Example 202]",100 to 1000
21,"CO[C@H]1CC[C@@H](n2cc(-c3cnc(-c4cccc(-c5cnn(C)c5)c4)nc3)cn2)CC1 [Example 252, Cis-5-[1-(4-Methoxy-cyclohexyl)-1H-pyrazol-4-yl]-2-[3-(1-methyl-1H-pyrazol-4-yl)-phenyl]-pyrimidine]",< 100
22,"Cn1cc(-c2cccc(-c3ncc(-c4cn(C5CCOCC5)nc4C(=O)N4CC(O)C4)cn3)c2)cn1 [Example 153, (3-Hydroxy-azetidin-1-yl)-[4-{2-[3-(1-methyl-1H-pyrazol-4-yl)-phenyl]-pyrimidin-5-yl}-1-(tetrahydro-pyran-4-yl)-1H-pyrazol-3-yl]-methanone]",1000 to 5000
23,"Cn1cc(-c2cccc(-c3ncc(-c4cnn(CC5CNCCO5)c4)cn3)c2)cn1 (stereo not shown) [Example 41, 2-(4-{2-[3-(1-Methyl-1H-pyrazol-4-yl)-phenyl]-pyrimidin-5-yl}-pyrazol-1-ylmethyl)-morpholine hydrochloride]",100 to 1000
24,"Cn1cc(-c2cccc(-c3ncc(-c4cnn(Cc5cccnc5)c4)cn3)c2)cn1 [Example 22, 2-[3-(1-Methyl-1H-pyrazol-4-yl)-phenyl]-5-(1-pyridin-3-ylmethyl-1H-pyrazol-4-yl)-pyrimidine]",100 to 1000
25,"CNC(=O)[C@H]1CCC[C@H](n2cc(-c3cnc(-c4cccc(-c5cnn(C)c5)c4)nc3)cn2)C1 (relative stereo) [Example 181, trans-3-(4-{2-[3-(1-Methyl-1H-pyrazol-4-yl)-phenyl]-pyrimidin-5-yl}-pyrazol-1-yl)-cyclohexanecarboxylic acid methylamide]",100 to 1000
26,"Cn1cc(-c2cccc(-c3ncc(-c4cnn(CC(=O)N5C[C@@H]6C[C@H]5CO6)c4)cn3)c2)cn1 [Example 92, 2-(4-{2-[3-(1-Methyl-1H-pyrazol-4-yl)-phenyl]-pyrimidin-5-yl}-pyrazol-1-yl)-1-(1S,4S)-2-oxa-5-aza-bicyclo[2.2.1]hept-5-yl-ethanone]",100 to 1000
27,"CC1COCCC1N1CCC(n2cc(-c3cnc(-c4cccc(-c5cnn(C)c5)c4)nc3)cn2)CC1 (stereo not shown) [Example 275, 2-[3-(1-Methyl-1H-pyrazol-4-yl)-phenyl]-5-{1-[1-(3-methyl-tetrahydro-pyran-4-yl)-piperidin-4-yl]-1H-pyrazol-4-yl}-pyrimidine]",< 100
28,"Cn1cc(-c2cccc(-c3ncc(-c4cnn([C@H]5CC[C@H](OCC(C)(C)O)CC5)c4)cn3)c2)cn1 [Example 224, trans-2-Methyl-1-[4-(4-{2-[3-(1-methyl-1H-pyrazol-4-yl)-phenyl]-pyrimidin-5-yl}-pyrazol-1-yl)-cyclohexyloxy]-propan-2-ol]",< 100

# Source: patent US9216991B2 (Ares Trading S.A., priority 2012, dated 2015)
